Common to all, as to format: cell-based
The target in assay [1] is T1, hGLP-1R (Homo sapiens, UniProt P43220). Briefly: Functional cAMP activity in the presence of 1% HSA. The settings on record: read-out: cAMP Rel EC50, hGLP-1R.
A further assay addresses hGcgR (Homo sapiens, UniProt P47871). The assay is described as follows: Functional cAMP activation in the presence of 0.1% casein (no HSA). The following applies: read-out: Relative cAMP EC50, hGcgR.
Assay [2] has as its target T2, hGIPR (Homo sapiens, UniProt P48546).
T2 sequence (P48546 22-466): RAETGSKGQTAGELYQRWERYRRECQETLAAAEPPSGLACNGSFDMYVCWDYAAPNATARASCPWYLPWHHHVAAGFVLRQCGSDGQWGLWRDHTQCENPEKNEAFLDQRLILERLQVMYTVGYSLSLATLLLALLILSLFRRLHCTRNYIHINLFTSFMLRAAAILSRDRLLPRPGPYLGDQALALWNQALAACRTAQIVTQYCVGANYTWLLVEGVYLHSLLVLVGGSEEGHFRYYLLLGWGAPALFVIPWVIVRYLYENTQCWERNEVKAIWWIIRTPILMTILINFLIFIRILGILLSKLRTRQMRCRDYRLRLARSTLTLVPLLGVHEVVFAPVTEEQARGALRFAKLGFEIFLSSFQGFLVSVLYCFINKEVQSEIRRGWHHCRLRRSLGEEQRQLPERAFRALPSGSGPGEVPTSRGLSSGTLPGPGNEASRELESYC
Briefly: Functional cAMP activity in the presence of 1% HSA. The settings on record: read-out: cAMP Rel EC50, hGIPR.

For assay [3], the target named is T1, hGLP-1R. Briefly: Functional cAMP activation in the presence of 0.1% casein (no HSA). The following applies: read-out: Relative cAMP EC50, hGLP-1R.
Assay [4] has as its target T2, hGIPR. Described as above. The settings on record: read-out: Relative cAMP EC50, hGIPR.
The target in a further assay is human GcgR (Homo sapiens, UniProt P47871). Briefly: Functional cAMP activity in the presence of 1% HSA. The settings on record: read-out: cAMP Rel EC50, hGcgR.
Setting [5] is: in the presence of 0.1% casein (no HSA), geometric mean.
[6] abbreviates: HEK-293 clonal cell line, 1% HSA, geometric mean of relative EC50.
[7] abbreviates: in the presence of 0.1% casein (no HSA), geometric mean of relative EC50.

By EC50 is commonly meant the midpoint of the concentration-response curve.

Read-outs that look alike come from different tables or passages of the source. Starred links: 1 amine or outer side, 2 acyl side, 3 side chain; linkers in the order of their positions; H or OH if unused. Non-standard residues stand in square brackets, D forms with d. Residues, ends and D or L forms follow the SMILES beside them. Groups on a side chain read outwards from the residue. No end group written: not given here. *: point of attachment. C18 diacid = O=C(O)CCCCCCCCCCCCCCCCC(=O)*; αMePhe(2-F) = C[C@](N)(Cc1ccccc1F)C(=O)O; γGlu = O=C(O)[C@H](CCC(=O)[*:2])N[*:1]; αMe4Pal = C[C@](N)(Cc1ccncc1)C(=O)O; αMeY = C[C@](N)(Cc1ccc(O)cc1)C(=O)O; 4Pal = N[C@@H](Cc1ccncc1)C(=O)O; αMeL = CC(C)C[C@](C)(N)C(=O)O; αMeS = C[C@](N)(CO)C(=O)O; Orn = NCCC[C@H](N)C(=O)O; AEEA = NCCOCCOCC(=O)O; Aib = CC(C)(N)C(=O)O
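Wherever Relative cAMP EC50, hGIPR is given: intracellular cAMP rise after 30 min at 37 °C read by HTRF against a standard curve, scaled between buffer alone (0%) and top control ligand concentration (100%), four-parameter fit.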
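Wherever Relative cAMP EC50, hGLP-1R is given: intracellular cAMP rise after 30 min at 37 °C read by HTRF, normalized between buffer only (0%) and maximal control ligand (100%), four-parameter variable-slope fit.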
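Wherever Relative cAMP EC50, hGcgR is given: intracellular cAMP rise after 30 min at 37 °C, read by HTRF against a cAMP standard curve, scaled from buffer only (0%) to maximal control ligand response (100%).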

Sequence of human GcgR (P47871 26-477): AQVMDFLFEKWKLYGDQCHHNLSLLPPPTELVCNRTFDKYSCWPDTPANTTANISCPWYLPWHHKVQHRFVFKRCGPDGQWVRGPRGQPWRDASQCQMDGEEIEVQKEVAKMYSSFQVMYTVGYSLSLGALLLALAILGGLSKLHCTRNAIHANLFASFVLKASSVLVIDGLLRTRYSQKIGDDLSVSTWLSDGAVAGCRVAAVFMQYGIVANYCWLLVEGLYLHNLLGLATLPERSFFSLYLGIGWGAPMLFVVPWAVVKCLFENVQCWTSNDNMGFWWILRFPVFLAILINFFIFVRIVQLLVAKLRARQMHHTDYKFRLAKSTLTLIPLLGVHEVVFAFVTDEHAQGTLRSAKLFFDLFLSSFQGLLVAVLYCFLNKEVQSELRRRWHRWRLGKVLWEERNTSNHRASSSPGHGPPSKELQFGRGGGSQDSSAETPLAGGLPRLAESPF
Sequence of hGcgR (P47871 26-477): as above
T1 sequence (P43220 24-463): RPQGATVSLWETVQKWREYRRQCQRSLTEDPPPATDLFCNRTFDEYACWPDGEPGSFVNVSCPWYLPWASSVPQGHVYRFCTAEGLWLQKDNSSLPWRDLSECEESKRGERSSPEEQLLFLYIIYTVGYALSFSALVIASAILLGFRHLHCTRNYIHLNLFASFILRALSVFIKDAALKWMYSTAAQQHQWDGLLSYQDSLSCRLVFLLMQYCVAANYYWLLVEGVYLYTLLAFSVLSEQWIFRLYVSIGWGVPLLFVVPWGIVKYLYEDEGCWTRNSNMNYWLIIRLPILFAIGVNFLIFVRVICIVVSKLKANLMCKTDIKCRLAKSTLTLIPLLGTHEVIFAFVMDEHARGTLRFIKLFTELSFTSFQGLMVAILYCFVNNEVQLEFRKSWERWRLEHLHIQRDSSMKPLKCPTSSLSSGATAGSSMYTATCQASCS

For `CC[C@H](C)[C@H](NC(=O)[C@H](CC(C)C)NC(=O)[C@H](Cc1ccc(O)cc1)NC(=O)[C@@H](CCC(=O)O)NC(=O)[C@@H](NC(=O)[C@H](Cc1ccccc1)NC(=O)[C@H](CC(N)=O)NC(=O)C(C)(C)NC(=O)[C@H](CCC(N)=O)NC(=O)[C@H](C)NC(=O)[C@H](CCCCNC(=O)CC[C@H](NC(=O)CC[C@H](NC(=O)CCCCCCCCCCCCCCCCC(=O)O)C(=O)O)C(=O)O)NC(=O)[C@H](CCCN)NC(=O)[C@H](CC(=O)O)NC(=O)[C@H](CC(C)C)NC(=O)[C@](C)(CC(C)C)NC(=O)[C@@H](NC(=O)[C@](C)(CO)NC(=O)[C@H](Cc1ccncc1)NC(=O)[C@H](CC(=O)O)NC(=O)[C@H](CO)NC(=O)[C@@H](NC(=O)[C@](C)(Cc1ccccc1F)NC(=O)[C@@H](NC(=O)CNC(=O)[C@H](CCC(N)=O)NC(=O)C(C)(C)NC(=O)[C@@H](N)Cc1ccc(O)cc1)[C@@H](C)O)[C@@H](C)O)[C@@H](C)CC)[C@@H](C)CC)C(=O)N[C@@H](CCC(=O)O)C(=O)NCC(=O)NCC(=O)N1CCC[C@H]1C(=O)N[C@@H](CO)C(=O)N[C@@H](CO)C(=O)NCC(=O)N[C@@H](CCC(=O)O)C(=O)N1CCC[C@H]1C(=O)N1CCC[C@H]1C(=O)N1CCC[C@H]1C(=O)N[C@@H](CCC(=O)O)C(N)=O` [Example 449] (H-Y[Aib]QGT[αMePhe(2-F)]TSD[4Pal][αMeS]I[αMeL]LD[Orn]K([γGlu-γGlu-C18 diacid])AQ[Aib]NFI[dE]YLIEGGPSSGEPPPE-NH2), the 50% effective concentration (EC50) came to 18.9 nM at hGLP-1R [1]; 11.5 nM at hGcgR; 1.66 nM at hGIPR [2]; 0.568 nM on hGLP-1R [3]; 0.0205 nM on hGIPR [4]; 424 nM on human GcgR.

“H-Y[Aib]QGTFTSD[4Pal][αMeS]Q[αMeL]LD[Orn]K([dE-γGlu-C18 diacid])AQ[αMe4Pal]QFIE[αMeY]LIE[Aib]GPSSGAPPPSGGGE-NH2 [Example 1187]”: the concentration giving a half-maximal response (EC50) at hGLP-1R [1] came to 154 nM; at hGcgR (setting [5]) it was 1.81 nM; on hGIPR [2], 7.11 nM; on hGLP-1R [3] (setting [5]), 1.06 nM; on hGIPR [4] (setting [5]), 0.0648 nM; at human GcgR, 370 nM.

Regarding “H-Y[Aib]QGTFTSD[4Pal]S[Orn][αMeL]LDKK([AEEA-AEEA-γGlu-C18 diacid])AQ[αMe4Pal]AFIEYLIE[Aib]GPSSGAPPPSGS-NH2 [Example 814]”, the EC50 is 649 nM on hGLP-1R [1]; 3.92 nM at hGcgR (setting [5]); 27.8 nM on hGIPR [2]; 3.76 nM at hGLP-1R [3] (setting [5]); 0.337 nM at hGIPR [4] (setting [5]); 554 nM at human GcgR.

As for “H-Y[Aib]QGT[αMePhe(2-F)]TSD[4Pal][αMeS]I[αMeL]LD[Orn]K([AEEA-γGlu-C18 diacid])AA[Aib]EFI[dE][αMeY]LIEGGPSSGAPPPSGTEE-NH2 [Example 725]”, the EC50 came out at 29.1 nM at hGLP-1R [1]; 1.49 nM on hGcgR; 1.39 nM at hGIPR [2]; 0.258 nM at hGLP-1R [3]; 0.0126 nM on hGIPR [4]; 244 nM at human GcgR.

“H-Y[Aib]QGT[αMePhe(2-F)]TSD[4Pal][αMeS]I[αMeL]LD[Orn]K([γGlu-γGlu-C18 diacid])AQ[Aib][Orn]FI[dE][αMeY]LSEGGPSSGEPPPSGQEE-NH2 [Example 570]”: the 50% effective concentration (EC50) at hGLP-1R [1] turned out to be 95.1 nM; at hGcgR it was 5.88 nM; at hGIPR [2], 13.6 nM; on hGLP-1R [3], 1.03 nM; on hGIPR [4], 0.186 nM; on human GcgR it was 648 nM.

Consider “H-Y[Aib]QGT[αMePhe(2-F)]TSD[4Pal]SI[αMeL]LDKK([γGlu-γGlu-C18 diacid])AQ[Aib]AFIEYLEEGGPSSGEPPPSGSEE-NH2 [Example 630]”, for which the EC50 at hGLP-1R [1] (setting [6]) amounted to 74.5 nM; on hGcgR (setting [7]), 8.07 nM; on hGIPR [2] (setting [6]), 2.96 nM; at hGLP-1R [3] (setting [7]), 0.762 nM; at hGIPR [4] (setting [7]), 0.0233 nM; at human GcgR (setting [6]), 872 nM.

Regarding “Y[Aib]QGT[αMePhe(2-F)]TSD[4Pal][αMeS]I[αMeL]LD[Orn]K([AEEA-γGlu-C18 diacid])AA[Aib]EFI[dE][αMeY]LIEGGPSSGEPPPSGTE-NH2 [Example 719]”, the half-maximal effective concentration (EC50) on hGLP-1R [1] (setting [6]) came to 23.2 nM; on hGcgR (setting [7]) it was 1.44 nM; at hGIPR [2] (setting [6]), 0.882 nM; on hGLP-1R [3] (setting [7]), 0.22 nM; on hGIPR [4] (setting [7]), 0.00998 nM; on human GcgR (setting [6]) it was 181 nM.

Turning to “H-Y[Aib]QGT[αMePhe(2-F)]TSD[4Pal][αMeS]I[αMeL]LD[Orn]K([AEEA-γGlu-γGlu-C18 diacid])AQ[αMe4Pal]EFI[dE][αMeY]LIEGGPSSGAPPPSGE-NH2 [Example 1176]”, the 50% effective concentration (EC50) at hGLP-1R [1] was 43.8 nM; on hGcgR (setting [5]), 1.8 nM; at hGIPR [2], 0.462 nM; at hGLP-1R [3] (setting [5]), 0.344 nM; at hGIPR [4] (setting [5]), 0.00717 nM; at human GcgR, 229 nM.

“H-Y[Aib]QGT[αMePhe(2-F)]TSD[4Pal]SILLDKK([γGlu-γGlu-C18 diacid])AQ[Aib]AFIEYLEEGGPSSGAPPPSGGEE-NH2 [Example 612]”: the half-maximal effective concentration (EC50) at hGLP-1R [1] was 126 nM; on hGcgR, 7.13 nM; at hGIPR [2], 7.58 nM; on hGLP-1R [3], 1.21 nM; at hGIPR [4], 0.087 nM; at human GcgR, 640 nM.

As for “H-Y[Aib]QGTFTSD[4Pal]S[Orn][αMeL]LDKK([AEEA-γGlu-C18 diacid])AQ[Aib]AFIE[αMeY]LIEGGPSSGAPPPSGS-NH2 [Example 836]”, the EC50 was 103 nM at hGLP-1R [1]; 17.1 nM at hGcgR (setting [5]); 26.7 nM at hGIPR [2]; 0.794 nM at hGLP-1R [3] (setting [5]); 0.294 nM on hGIPR [4] (setting [5]); 2100 nM on human GcgR.

On to “Y[Aib]QGTFTSD[4Pal]SK[αMeL]LDKK([AEEA-γGlu-C18 diacid])AQ[Aib]AFIEYLIE[Aib]GESSGEPPPSGE-NH2 [Example 281]”, for which the EC50 came out at 295 nM on hGLP-1R [1]; 13.7 nM on hGcgR (setting [5]); 25.8 nM at hGIPR [2]; 1.6 nM at hGLP-1R [3] (setting [5]); 0.154 nM at hGIPR [4] (setting [5]); 1370 nM on human GcgR.

On to “H-Y[Aib]QGT[αMePhe(2-F)]TSD[4Pal]SI[αMeL]LD[Orn]K([AEEA-γGlu-C18 diacid])AQ[αMe4Pal][Orn]FI[dE][αMeY]LIEGGPSSGAPPPESEE-NH2 [Example 756]”, for which the half-maximal effective concentration (EC50) on hGLP-1R [1] was found to be 28.2 nM; on hGcgR, 2.26 nM; on hGIPR [2] it was 1.61 nM; at hGLP-1R [3] it was 0.212 nM; at hGIPR [4], 0.0096 nM; on human GcgR, 372 nM.

Consider “Y[Aib]QGT[αMePhe(2-F)]TSD[4Pal][αMeS]I[αMeL]LD[Orn]K([γGlu-γGlu-C18 diacid])AA[Aib]EFI[dE][αMeY]LIEGGPSSGEPPPSGGGE-NH2 [Example 748]”, for which the EC50 on hGLP-1R [1] was 22.9 nM; on hGcgR, 1.42 nM; at hGIPR [2], 0.865 nM; on hGLP-1R [3], 0.258 nM; on hGIPR [4] it was 0.0105 nM; on human GcgR, 156 nM.

Regarding “H-Y[Aib]QGT[αMePhe(2-F)]TSD[4Pal]SI[αMeL]LD[Orn]K([γGlu-γGlu-C18 diacid])AQ[αMe4Pal]EFI[dE][αMeY]LQEGGPSSGAPPPSGS-NH2 [Example 647]”, the concentration giving a half-maximal response (EC50) turned out to be 36.1 nM on hGLP-1R [1]; 18.8 nM on hGcgR; 0.691 nM at hGIPR [2]; 0.872 nM at hGLP-1R [3]; 0.0177 nM on hGIPR [4]; 1210 nM on human GcgR.

As to “H-Y[Aib]QGTFTSD[4Pal]SQ[αMeL]LDKK([γGlu-γGlu-C18 diacid])AQ[αMe4Pal]AFIE[αMe4Pal]LIE[Aib]GPSSGEPPPSGSEE-NH2 [Example 1125]”, the EC50 at hGLP-1R [1] came to 243 nM; on hGcgR (setting [5]) it was 5.83 nM; at hGIPR [2], 3.95 nM; on hGLP-1R [3] (setting [5]) it was 8.26 nM; at hGIPR [4] (setting [5]), 0.173 nM; on human GcgR it was 264 nM.

For the molecule “H-Y[Aib]QGT[αMePhe(2-F)]TSD[4Pal][αMeS]I[αMeL]LD[Orn]K([γGlu-γGlu-C18 diacid])AQ[Aib][Orn]FI[dE][αMeY]LTEGGPSSGEPPPEGTEEE-NH2 [Example 598]”, the EC50 on hGLP-1R [1] turned out to be 47.3 nM; on hGcgR, 8.79 nM; on hGIPR [2], 3.49 nM; on hGLP-1R [3], 0.886 nM; on hGIPR [4] it was 0.0927 nM; at human GcgR, 457 nM.

Source of the values: US20240270821A1, “GIP/GLP1/GCG TRI-RECEPTOR AGONISTS AND USES THEREOF” (priority 2023, published 2024).
